Results taken from patent publication US20250135072A1, “COMPOSITIONS COMPRISING A BIOABSORBABLE POLYMER AND METABOLIC INHIBITOR” (Board of Trustees of Michigan State University, priority 2022, published 2025).

Tests used:
[1] = tested on: Mouse embryonic fibroblasts (NIH 3T3 cells); experiment: ATP levels in MEFs (luciferase bioluminescence in live cells; standard ATP assay on lysates); assay type: cell-based; settings: for Total ATP levels in MEFs: MEFs exposed to each of PLLA, PDLA and stereocomplex PLA extracts plus inhibitor; for increased bioenergetic (ATP) levels: amorphous or crystalline PLA extract-treated fibroblasts plus inhibitor, spatiotemporal and dose-dependent
Description: Breakdown products of PLA (hereafter “extracts”) were generated in serum-containing media and used after twelve days of incubation in a shaker at 37° C. The in vitro degradation mimics PLA degradation in vivo. Immune cells were maintained in the PLA extracts for twelve days. BMDMs derived from C57BL/6J mice (Jackson Laboratories) of 3-4 months were used. Mouse embryonic fibroblasts (NIH 3T3 cells, hereafter “MEFs”) were stably transfected with a Sleeping Beauty transposon plasmid (pLuBIG) encoding blasticidin resistance linked to eGFP, and luciferase. Bioluminescence of the fibroblasts served as in indicator of ATP levels. Cell viability was measured using the crystal violet staining assay at room temperature. 50 μL media containing cells is incubated with 150 μL of 99.9% methanol for 15 minutes. 100 μL of 0.5% crystal violet (25% methanol) is added for 20 minutes. Each well is emptied and washed twice with 200 μL phosphate buffered saline for 2 minutes. Absorbance (optical density) was acquired at 570 nm using the SpectraMax M3 Spectrophotometer (Molecular Devices) and SoftMax Pro software (ver. 7.0.2).
To exclude the possibility that changing luciferase expression (by transcription or translation) was responsible for observed bioenergetic changes, wild-type cells were lysed after exposure to PLA extract. Controlled amounts of luciferase and D-luciferin were added to the standard ATP assay. By day 12, there was a 1.9-and 2.3-fold increase in ATP levels among cells exposed to crystalline and amorphous PLA extract, respectively (FIG. 2). To exclude the possibility that PLA extracts affect the biochemical reaction underlying bioenergetic measurements, lysed fibroblasts were exposed to D-luciferin, luciferase and control or PLA extract.
ATP levels in live cells were assessed by bioluminescence on the IVIS Spectrum in vivo imaging system (PerkinElmer) after addition of 150 μg/mL D-luciferin (PerkinElmer). For lysed cells, the standard ATP/ADP kits (Sigma-Aldrich) were used according to manufacturer's instructions.

[2] = tested on: primary BMDMs; experiment: Seahorse assays (OCR, ECAR, PER) in primary BMDMs; assay type: cell-based, mouse; settings: for metabolic reprogramming: BMDMs exposed to amorphous or crystalline PLA extract, dose-dependent; for ECAR / OCR / PER: Example 2, BMDMs exposed to PLA extracts of varied stereochemistries plus inhibitor
Source text: To determine the metabolic pathways responsible for the observed bioenergetic changes, Seahorse assays were used to measure oxygen consumption rate (OCR), extracellular acidification rate (ECAR) and lactate-linked proton efflux rate (PER) in a customized medium (pH 7.4). Basal measurements of OCR, ECAR, and PER were obtained in real time using the Seahorse XFe-96 Extracellular Flux Analyzer (Agilent Technologies). Prior to running the assay, cell culture medium was washed with and replaced by the Seahorse XF DMEM medium (pH 7.4) supplemented with 25 mM D-glucose and 4 mM glutamine. The Seahorse plates were equilibrated in a non-CO2 incubator for an hour prior to the assay. The Seahorse ATP rate and cell energy phenotype assays were run according to manufacturer's instruction and all reagents for the Seahorse assays were sourced from Agilent Technologies. Wave software (Version 2.6.1) was used to export Seahorse data directly as means±standard deviation (SD).
Seahorse assays measures ECAR as an index of glycolytic flux, OCR as an index of oxidative phosphorylation and PER as an index of monocarboxylate transporter function in live cells; and are used to assess for metabolic reprogramming. Primary BMDMs exposed to amorphous PLA extract were metabolically altered, showing a 2-fold increase in oxidative phosphorylation (OCR; FIG. 10), 3.5-fold increase in glycolytic flux (ECAR; FIG. 11) and 3.5-fold increase in monocarboxylate transporter activity (PER; FIG. 12) in comparison to untreated BMDMs.

[3] = tested on: primary BMDMs; experiment: Crystal violet cell viability / cell number assay in primary BMDMs; assay type: cell-based, mouse; settings: BMDMs treated with amorphous or crystalline PLA extract
Description: Breakdown products of PLA (hereafter “extracts”) were generated in serum-containing media and used after twelve days of incubation in a shaker at 37° C. […] Immune cells were maintained in the PLA extracts for twelve days. BMDMs derived from C57BL/6J mice (Jackson Laboratories) of 3-4 months were used. Mouse embryonic fibroblasts (NIH 3T3 cells, hereafter “MEFs”) were stably transfected with a Sleeping Beauty transposon plasmid (pLuBIG) encoding blasticidin resistance linked to eGFP, and luciferase. Bioluminescence of the fibroblasts served as in indicator of ATP levels. Cell viability was measured using the crystal violet staining assay at room temperature. 50 μL media containing cells is incubated with 150 μL of 99.9% methanol for 15 minutes. 100 μL of 0.5% crystal violet (25% methanol) is added for 20 minutes. Each well is emptied and washed twice with 200 μL phosphate buffered saline for 2 minutes. Absorbance (optical density) was acquired at 570 nm using the SpectraMax M3 Spectrophotometer (Molecular Devices) and SoftMax Pro software (ver. 7.0.2).

[4] = tested on: primary macrophages (BMDMs); experiment: Cytokine and chemokine protein levels in macrophage supernatants (MILLIPLEX multiplex, IL-6 ELISA); assay type: cell-based, mouse; settings: for abnormally increased levels of IL-1β / abnormally increased levels of IL-6 / abnormally increased levels of MCP-1 / abnormally increased levels of TNF-α: macrophages exposed to PLA extract plus inhibitor
Description: Cytokine and chemokine levels were measured using a MILLIPLEX MAP mouse magnetic bead multiplex kit (MilliporeSigma) to assess for IL-6, MCP-1, TNF-a, IL-1b, IL-4, IL-10, IFN-1 and 1L-13 protein expression in supernatants. Data was acquired using Luminex 200 (Luminex Corporation) by the xPONENT software (Version 3.1, Luminex Corporation). […] For statistical analyses, those values were expressed as 3.1 pg/mL. Values exceeding the dynamic range of the assay, in accordance with manufacturer's instruction, were excluded. Additionally, IL-6 ELISA kits (RayBiotech) for supernatants were used according to manufacturer's instructions.

[5] = In-vitro studies indicating effective concentration of 2DG; assay type: cell-based
Description: Amorphous PLA was compounded with 2DG at 190° C. for 3 mins in a DSM 15 cc mini-extruder (DSM Xplore) and pelletizer (Leistritz Extrusion Technology). Our in-vitro studies indicate 1 mM 2DG to be an effective concentration. Accordingly, we estimated that 18 mg of 2DG in 10 g of amorphous PLA will approximate effective concentrations after accounting for potential thermal degradation of 2DG, converting mM to w/w values. […] To exclude the effect of melt-blending as a confounder in our studies, amorphous PLA controls were processed under the same thermal conditions to make “reprocessed” amorphous PLA. Pellets from melt-blending were made into 1.75 mm diameter filaments using an extruder (Filabot EX2) at 170° C. with air set at 93. For surgical implantation, amorphous PLA filaments were cut into 1 mm lengths; four biomaterials were subcutaneously implanted on the dorsum (back) of each mouse, with two cranially (2.5 cm apart) and two caudally (2.5 cm apart).

[6] = macrophages exposed to the PLLA and PDLA extracts plus inhibitor
[7] = BMDMs, prolonged (day 7) exposure to L-lactic acid

Compound	Total ATP levels in MEFs [1]	increased bioenergetic (ATP) levels [1]	metabolic reprogramming [2]	ECAR [2]	OCR [2]	PER [2]	cell viability [3]	abnormally increased levels of IL-1β [4]	abnormally increased levels of IL-6 [4]	abnormally increased levels of MCP-1 [4]	abnormally increased levels of TNF-α [4]	IL-10 levels [4, 6]	other results
O=CC[C@@H](O)[C@H](O)[C@H](O)CO [2DG, 2-deoxyglucose]	decreased	inhibited	inhibited	dose-dependent decrease	dose-dependent decrease	dose-dependent decrease	selectively reduced	modulated	modulated	modulated	modulated	increased	effective concentration [5]: 1 mM
O=C(C=Cc1cccnc1)c1ccncc1 [3PO, 3-(3-pyridinyl)-1-(4-pyridinyl)-2-propen-1-one]	decreased	inhibited	inhibited	dose-dependent decrease	dose-dependent decrease	dose-dependent decrease	selectively reduced	modulated	modulated	modulated	modulated		cytokine values ([4]; in some experiments): < 3.2 pg/mL
C[C@H](O)C(=O)O [L-lactic acid]													increase in glycolytic flux (ECAR) [2, 7]: 2.8 fold; increase in monocarboxylate transporter function (PER) [2, 7]: 2.8 fold; increase in oxidative phosphorylation (OCR) [2, 7]: 2.3 fold; increase in IL-6 protein expression ([4]; compared to untreated macrophages): 2.3 fold
NOCC(=O)O [aminooxyacetic acid]	decreased	inhibited	inhibited	dose-dependent decrease	dose-dependent decrease	dose-dependent decrease	selectively reduced	modulated	modulated	modulated	modulated	increased	increase in IL-10 expression ([4]; amorphous PLA extract plus inhibitor, relative to macrophages exposed to PLA extract): 3.4 fold; IL-10 expression ([4]; crystalline PLA extract plus inhibitor, relative to macrophages exposed to PLA extract): unchanged; IL-10 levels ([4]; macrophages treated with stereocomplex PLA extracts plus inhibitor): further increased
